Source: patent US9562036B2, “Fluoromethyl-substituted pyrrole carboxamides as CaV2.2 calcium channel blockers” (GRÜNENTHAL GMBH, priority 2013, dated 2017)

These compounds were tested against T1, Human CaV2.2 channels (Homo sapiens, UniProt Q00975) (assay: Fluorescent assay for CaV2.2 channels using potassium depolarization to induce channel opening (FLIPR, Fluo 4)). Conditions: 3 μM test compound; 30 mM KCl alternative assay buffer (inactivated channel state); HEK293 cells; read-out: %-Inhib (CaV2.2) @3 μM @30 mM KCl.
T1 construct: expressed in transfected cells; also stably expressing Kir2.3)
T1 sequence (Q00975 whole entry): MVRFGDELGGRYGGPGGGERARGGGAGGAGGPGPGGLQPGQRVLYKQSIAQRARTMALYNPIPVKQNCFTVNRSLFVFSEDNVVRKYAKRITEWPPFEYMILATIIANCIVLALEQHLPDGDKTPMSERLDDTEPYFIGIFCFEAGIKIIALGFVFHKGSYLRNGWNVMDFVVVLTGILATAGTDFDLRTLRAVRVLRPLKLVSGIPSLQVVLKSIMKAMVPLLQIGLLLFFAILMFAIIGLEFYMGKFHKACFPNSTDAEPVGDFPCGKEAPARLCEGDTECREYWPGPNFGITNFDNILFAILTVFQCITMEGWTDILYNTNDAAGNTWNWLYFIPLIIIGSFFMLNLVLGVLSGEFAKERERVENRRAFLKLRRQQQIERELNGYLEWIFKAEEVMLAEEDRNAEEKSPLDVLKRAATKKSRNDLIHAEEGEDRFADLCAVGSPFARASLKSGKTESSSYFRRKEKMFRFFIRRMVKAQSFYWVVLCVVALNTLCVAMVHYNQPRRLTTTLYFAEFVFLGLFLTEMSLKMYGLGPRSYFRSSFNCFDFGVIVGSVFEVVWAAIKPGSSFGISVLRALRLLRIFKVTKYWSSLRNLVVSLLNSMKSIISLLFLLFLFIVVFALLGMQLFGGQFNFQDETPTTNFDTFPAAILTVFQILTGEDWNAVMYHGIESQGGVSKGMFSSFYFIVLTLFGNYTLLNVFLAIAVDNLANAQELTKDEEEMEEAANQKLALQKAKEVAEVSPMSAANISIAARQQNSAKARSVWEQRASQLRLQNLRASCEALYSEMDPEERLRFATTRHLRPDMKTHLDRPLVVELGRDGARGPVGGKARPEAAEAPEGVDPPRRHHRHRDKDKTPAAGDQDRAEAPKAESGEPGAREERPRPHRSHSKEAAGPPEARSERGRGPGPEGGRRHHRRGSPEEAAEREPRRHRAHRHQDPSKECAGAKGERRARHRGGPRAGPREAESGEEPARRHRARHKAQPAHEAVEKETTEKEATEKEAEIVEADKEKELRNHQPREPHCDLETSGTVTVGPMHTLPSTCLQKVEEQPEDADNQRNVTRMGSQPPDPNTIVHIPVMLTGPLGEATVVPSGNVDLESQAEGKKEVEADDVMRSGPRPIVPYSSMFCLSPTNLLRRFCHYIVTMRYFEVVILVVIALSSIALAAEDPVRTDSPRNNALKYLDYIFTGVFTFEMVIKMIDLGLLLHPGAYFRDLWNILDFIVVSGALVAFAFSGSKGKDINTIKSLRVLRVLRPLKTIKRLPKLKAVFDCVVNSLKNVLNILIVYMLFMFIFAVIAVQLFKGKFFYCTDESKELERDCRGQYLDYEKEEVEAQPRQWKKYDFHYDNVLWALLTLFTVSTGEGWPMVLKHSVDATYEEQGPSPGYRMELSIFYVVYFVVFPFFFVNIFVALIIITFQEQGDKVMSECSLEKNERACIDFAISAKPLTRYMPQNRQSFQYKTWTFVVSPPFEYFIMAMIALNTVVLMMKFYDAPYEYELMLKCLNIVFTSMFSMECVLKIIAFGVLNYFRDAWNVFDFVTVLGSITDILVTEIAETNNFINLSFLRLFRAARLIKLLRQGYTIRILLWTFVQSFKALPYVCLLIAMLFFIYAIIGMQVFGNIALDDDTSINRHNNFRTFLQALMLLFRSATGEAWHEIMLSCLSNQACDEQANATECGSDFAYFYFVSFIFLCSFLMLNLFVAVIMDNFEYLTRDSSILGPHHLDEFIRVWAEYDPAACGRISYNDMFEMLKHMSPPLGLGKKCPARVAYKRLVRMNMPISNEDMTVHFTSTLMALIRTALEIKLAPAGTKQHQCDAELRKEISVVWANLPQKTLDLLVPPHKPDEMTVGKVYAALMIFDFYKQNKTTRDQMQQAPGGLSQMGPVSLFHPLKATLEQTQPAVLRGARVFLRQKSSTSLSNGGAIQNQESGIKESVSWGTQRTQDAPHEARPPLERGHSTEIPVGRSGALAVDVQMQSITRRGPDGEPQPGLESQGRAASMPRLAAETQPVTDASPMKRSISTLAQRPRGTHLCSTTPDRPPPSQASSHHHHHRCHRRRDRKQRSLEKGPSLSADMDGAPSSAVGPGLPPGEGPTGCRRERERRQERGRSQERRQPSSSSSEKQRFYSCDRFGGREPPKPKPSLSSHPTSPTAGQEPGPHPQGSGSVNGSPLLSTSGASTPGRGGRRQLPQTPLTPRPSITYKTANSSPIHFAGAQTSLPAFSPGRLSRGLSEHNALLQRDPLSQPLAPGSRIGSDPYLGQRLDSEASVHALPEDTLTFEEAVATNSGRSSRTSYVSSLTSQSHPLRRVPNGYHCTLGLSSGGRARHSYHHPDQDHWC
Type: cell-based
From the text: In the process, the Ca^2+ influx is quantified in the FLIPR assay with the aid of a Ca^2+-sensitive dye (type Fluo-4, Molecular Probes Europe BV, Leiden, the Netherlands) in a fluorescent imaging plate reader (FLIPR 3, Molecular Devices, Sunnyvale, USA), as described hereinafter.
2. Assay Descriptions and Biological Data: 2.1 Fluorescent Assay for CaV2.2 Channels Using Potassium Depolarization to Induce Channel Opening
Human CaV2.2 channels were stably expressed in HEK293 cells together with alpha2-delta and beta subunits of voltage gated calcium channels. In addition, an inwardly rectifying potassium channel (Kir2.3) was stably expressed in these cells to augment control of the cell membrane potential by the concentration of extracellular potassium ions. Raise of the extracellular potassium concentration leads to depolarization of the membrane potential and thus regulates the voltage dependent state of CaV2.2 channels. For preparation, cells were seeded in black poly-D-lysine coated 96-well plates (Becton Dickinson, Biocoat 4640) in 100 μL medium [500 mL DMEM/F-12 plus Glutamax (Invitrogen 31331-093) plus 5.5 mL MEM NEAA 100× (Invitrogen 11140-035) plus 50 mL FBS decomplemented (Invitrogen 10270-106) plus 200 μg/mL Geneticin (Invitrogen 10131-027) plus 50 μg/mL Hygromycin B (Invitrogen 10687-010) plus 2 μg/mL Blasticidin (anti-bl5b Invivo-Gen) plus 0.2 μg/mL Puromycin (A 11138-03)] at a cell density of 30.000 cells per well. Plates were incubated at 37° C. (5% CO2) for 20 to 23 h. On the day of experiment medium was discarded and cells were loaded with Fluo 4 by addition of 100 μL of basic assay buffer (10 mM HEPES, 1 mM KCl, 149 mM NaCl, 0.8 mM CaC2, 1.7 mM MgCl2, 10 mM Glucose, 0.1% BSA. pH 7.4) containing 2 μM Fluo 4 (Molecular Probes; F-14201), 0.01% pluronic acid (Molecular Probes; P-6866) and 2.5 mM probenecid (Molecular Probes; P36400). Cells were incubated in the dark at 25° C. for 60 min. Then dye containing buffer was discarded and 100 μL basic (1 mM KCl) or alternative (30 mM KCl) assay buffer was added. The alternative assay buffer contained altered concentrations of KCl (30 mM) and NaCl (120 mM) and was used in order to promote the inactivated channel state. After that 25 μL of basic or alternative assay buffer with or without test compound were added and cells were incubated again in the dark at 25° C. for 15 min. Fluorescence intensity was measured on a FLIPR 3 instrument (Molecular Devices Corp., Sunnyvale, Calif.) with excitation at 480 nm and emission at 535 nm. After continuously reading fluorescence for 30 sec, 50 μL of basic assay buffer containing 210 mM KCl (NaCl omitted) were added for depolarization. Peak fluorescent signal intensity was determined and the amplitude of the peak signal, normalized to base line, was used to measure channel inhibition by test compounds.
Work on `Cc1c(-c2ccnnc2)c(C(=O)N(C)CC(C)(C)C)n(Cc2ccccc2)c1C(F)(F)F` [Example 32, 1-Benzyl-N,4-dimethyl-N-neopentyl-3-(pyridazin-4-yl)-5-(trifluoromethyl)-1H-pyrrole-2-carboxamide] yielded an inhibition at 3 µM of 75 to 95%.
`Cc1c(-c2ccnnc2)c(C(=O)N2CCOCC2)n(Cc2ccccc2)c1C(F)(F)F` [Example 37, (1-Benzyl-4-methyl-3-(pyridazin-4-yl)-5-(trifluoromethyl)-1H-pyrrol-2-yl)(morpholino)methanone] gave an inhibition at 3 µM of 40 to 75%.
`Cc1c(-c2ccc(F)cn2)c(C(=O)N(C)CC(C)(C)C)n(Cc2ccccc2)c1C(F)(F)F` [Example 31, 1-Benzyl-3-(5-fluoropyridin-2-yl)-N,4-dimethyl-N-neopentyl-5-(trifluoromethyl)-1H-pyrrole-2-carboxamide] was tested, and the inhibition at 3 µM was > 95%.
For `Cc1c(-c2ncc(F)cn2)c(C(=O)N2CCOCC2)n(Cc2ccccc2)c1C(F)(F)F` [Example 38, (1-Benzyl-3-(5-fluoropyrimidin-2-yl)-4-methyl-5-(trifluoromethyl)-1H-pyrrol-2-yl)(morpholino)methanone], the inhibition at 3 µM was 40 to 75%.
`COc1ccc(-c2c(C)c(C(F)(F)F)n(Cc3ccccc3)c2C(=O)N2CCOCC2)cn1` [Example 06, (1-Benzyl-3-(6-methoxypyridin-3-yl)-4-methyl-5-(trifluoromethyl)-1H-pyrrol-2-yl)(morpholino)methanone] gave an inhibition at 3 µM of 75 to 95%.
For `Cc1c(-c2ncc(Cl)cn2)c(C(=O)N2CCOC(C)(C)C2)n(Cc2ccccc2)c1C(F)(F)F` [Example 45, [1-Benzyl-3-(5-chloro-pyrimidin-2-yl)-4-methyl-5-(trifluoromethyl)-1H-pyrrol-2-yl]-(2,2-dimethyl-morpholin-4-yl)-methanone], the inhibition at 3 µM was > 95%.
`COc1cc(C)c(-c2c(C)c(C(F)(F)F)n(Cc3ccccc3)c2C(=O)N2CCOCC2)cn1` [Example 28, [1-Benzyl-3-(6-methoxy-4-methyl-pyridin-3-yl)-4-methyl-5-(trifluoromethyl)-1H-pyrrol-2-yl]-morpholin-4-yl-methanone] was tested, and the inhibition at 3 µM was 75 to 95%.
Compound `Cc1c(-c2ncc(Cl)cn2)c(C(=O)NC2CC2)n(Cc2ccccc2)c1C(F)(F)F` [Example 46, 1-Benzyl-3-(5-chloro-pyrimidin-2-yl)-N-cyclopropyl-4-methyl-5-(trifluoromethyl)-1H-pyrrole-2-carboxylic acid amide] has an inhibition at 3 µM of 40 to 75%.
`Cc1c(-c2ncc(Cl)cn2)c(C(=O)N2CCS(=O)(=O)CC2)n(Cc2ccccc2)c1C(F)(F)F` [Example 44, [1-Benzyl-3-(5-chloro-pyrimidin-2-yl)-4-methyl-5-(trifluoromethyl)-1H-pyrrol-2-yl]-(1,1-dioxo-[1,4]thiazinan-4-yl)-methanone] gave an inhibition at 3 µM of 75 to 95%.
For `Cc1c(-c2ccc(Cl)nn2)c(C(=O)N(C)CC(C)(C)C)n(Cc2ccccc2)c1C(F)(F)F` [Example 22, 1-Benzyl-3-(6-chloro-pyridazin-3-yl)-N-(2,2-dimethyl-propyl)-N,4-dimethyl-5-(trifluoromethyl)-1H-pyrrole-2-carboxylic acid amide], the inhibition at 3 µM was > 95%.
Compound `COc1ccc(-c2c(C)c(C(F)(F)F)n(Cc3ccccc3)c2C(=O)N(C)CC(C)(C)C)cn1` [Example 02, 1-Benzyl-3-(6-methoxypyridin-3-yl)-N,4-dimethyl-N-neopentyl-5-(trifluoromethyl)-1H-pyrrole-2-carboxamide] has an inhibition at 3 µM of 40 to 75%.
Work on `COc1ncc(-c2c(C)c(C(F)(F)F)n(Cc3ccccc3)c2C(=O)N(C)CC(C)(C)C)cn1` [Example 12, 1-Benzyl-N-(2,2-dimethyl-propyl)-3-(2-methoxy-pyrimidin-5-yl)-N,4-dimethyl-5-(trifluoromethyl)-1H-pyrrole-2-carboxylic acid amide] yielded an inhibition at 3 µM of 75 to 95%.
`Cc1c(-c2ccc(Cl)cn2)c(C(=O)N(C)CCS(C)(=O)=O)n(Cc2ccccc2)c1C(F)(F)F` [Example 43, 1-Benzyl-3-(5-chloro-pyridin-2-yl)-N,4-dimethyl-N-(2-methylsulfonyl-ethyl)-5-(trifluoromethyl)-1H-pyrrole-2-carboxylic acid amide] was tested, and the inhibition at 3 µM was > 95%.
`Cc1cc(C#N)ncc1-c1c(C)c(C(F)(F)F)n(Cc2ccccc2)c1C(=O)N(C)CC(C)(C)C` [Example 19, 1-Benzyl-3-(6-cyano-4-methylpyridin-3-yl)-N,4-dimethyl-N-neopentyl-5-(trifluoromethyl)-1H-pyrrole-2-carboxamide] was tested, and the inhibition at 3 µM was 75 to 95%.
Work on `COc1cnc(-c2c(C)c(C(F)(F)F)n(Cc3ccccc3)c2C(=O)N(C)CC(C)(C)C)cn1` [Example 01, 1-benzyl-3-(5-methoxypyrazin-2-yl)-N,4-dimethyl-N-neopentyl-5-(trifluoromethyl)-1H-pyrrole-2-carboxamide] yielded an inhibition at 3 µM of 75 to 95%.
`Cc1c(-c2cnccn2)c(C(=O)N(C)CC(C)(C)C)n(Cc2ccccc2)c1C(F)(F)F` [Example 34, 1-Benzyl-N,4-dimethyl-N-neopentyl-3-(pyrazin-2-yl)-5-(trifluoromethyl)-1H-pyrrole-2-carboxamide] was tested, and the inhibition at 3 µM was 75 to 95%.
With `Cc1c(-c2ncc(C3CC3)cn2)c(C(=O)N(C)C(C)C)n(Cc2ccccc2)c1C(F)(F)F` [Example 56, 1-Benzyl-3-(5-cyclopropyl-pyrimidin-2-yl)-N-isopropyl-N,4-dimethyl-5-(trifluoromethyl)-1H-pyrrole-2-carboxylic acid amide] the inhibition at 3 µM was > 95%.
Compound `Cc1c(-c2ncc(Cl)cn2)c(C(=O)NC(C)C)n(Cc2ccccc2)c1C(F)(F)F` [Example 52, 1-Benzyl-3-(5-chloro-pyrimidin-2-yl)-N-isopropyl-4-methyl-5-(trifluoromethyl)-1H-pyrrole-2-carboxylic acid amide] has an inhibition at 3 µM of 40 to 75%.
For `Cc1c(-c2ncc(Cl)cn2)c(C(=O)N(C)CC(C)(C)C)n(Cc2ccccc2)c1C(F)(F)F` [Example 18, 1-Benzyl-3-(5-chloro-pyrimidin-2-yl)-N-(2,2-dimethyl-propyl)-N,4-dimethyl-5-(trifluoromethyl)-1H-pyrrole-2-carboxylic acid amide], the inhibition at 3 µM was > 95%.
In the case of `Cc1c(-c2ncccn2)c(C(=O)N(C)CC(C)(C)C)n(Cc2ccccc2)c1C(F)(F)F` [Example 35, 1-Benzyl-N,4-dimethyl-N-neopentyl-3-(pyrimidin-2-yl)-5-(trifluoromethyl)-1H-pyrrole-2-carboxamide], the inhibition at 3 µM was 75 to 95%.
Work on `Cc1c(-c2cncnc2)c(C(=O)N2CCOCC2)n(Cc2ccccc2)c1C(F)(F)F` [Example 15, [1-Benzyl-4-methyl-3-pyrimidin-5-yl-5-(trifluoromethyl)-1H-pyrrol-2-yl]-morpholin-4-yl-methanone] yielded an inhibition at 3 µM of 40 to 75%.
For `Cc1c(-c2cnn(C)c2)c(C(=O)N(C)CC(C)(C)C)n(Cc2ccccc2)c1C(F)(F)F` [Example 04, 1-Benzyl-N,4-dimethyl-3-(1-methyl-1H-pyrazol-4-yl)-N-neopentyl-5-(trifluoromethyl)-1H-pyrrole-2-carboxamide], the inhibition at 3 µM was > 95%.
`Cc1c(-c2cn[nH]c2)c(C(=O)N(C)CC(C)(C)C)n(Cc2ccccc2)c1C(F)(F)F` [Example 09, 1-Benzyl-N,4-dimethyl-N-neopentyl-3-(1H-pyrazol-4-yl)-5-(trifluoromethyl)-1H-pyrrole-2-carboxamide] showed an inhibition at 3 µM of 75 to 95%.
`Cc1c(-c2ccc(F)cn2)c(C(=O)N2CCOCC2)n(Cc2ccccc2)c1C(F)(F)F` [Example 36, (1-Benzyl-3-(5-fluoropyridin-2-yl)-4-methyl-5-(trifluoromethyl)-1H-pyrrol-2-yl)(morpholino)methanone] was tested, and the inhibition at 3 µM was 75 to 95%.
With `Cc1cc(Cl)ncc1-c1c(C)c(C(F)(F)F)n(Cc2ccccc2)c1C(=O)N(C)CC(C)(C)C` [Example 20, 1-Benzyl-3-(6-chloro-4-methyl-pyridin-3-yl)-N-(2,2-dimethyl-propyl)-N,4-dimethyl-5-(trifluoromethyl)-1H-pyrrole-2-carboxylic acid amide] the inhibition at 3 µM was 75 to 95%.
For `Cc1c(-c2ccc(Cl)nn2)c(C(=O)N2CCOCC2)n(Cc2ccccc2)c1C(F)(F)F` [Example 29, [1-Benzyl-3-(6-chloro-pyridazin-3-yl)-4-methyl-5-(trifluoromethyl)-1H-pyrrol-2-yl]-morpholin-4-yl-methanone], the inhibition at 3 µM was 40 to 75%.
